# Data from US11708318B2, “Polymorphic forms of RAD1901-2HCL” (Radius Pharmaceuticals, Inc., priority 2017, dated 2023).
# Entries after “also recorded” stand apart in the source; their conditions may differ.
# Legend:
# Assay type in all cases: physicochemical
# [1] = Variable humidity XRPD (VH-XRPD); settings: ~95% RH, 24 hr
# Description: Samples run under non-ambient conditions were prepared by gently packing into a cavity, cut into a silicon wafer to obtain a flat surface and mounted onto a humidity stage with an Ansyco controller and humidity sensor positioned directly next to the sample holder. The data were collected at 298.15 K with water temperature of 35.0° C., in an angular range of 3 to 31° 2θ, with a step size of 0.025° 2θ, a collection time of 2.0 sec/step, and a collection time at each % RH was 41 min 28 sec. X-Ray Powder Diffraction (XRPD) patterns were collected at variable humidity values from 0 to 95% RH, based upon the humidity behavior of each compound observed during GVS experiments (described herein). For each Variable Humidity X-Ray Powder Diffraction (VH-XRPD) experiment performed, the % RH values selected are provided alongside the relevant experimental result. Full tables of detailing the % RH value at each collection point and the associated delay time at each value are provided in Tables 10-12. To fully characterize the polymorphic behavior of Samples 1 and 2 at variable humidity, and to collect reference XRPD patterns for the ‘pure’ anhydrous Form 1 and Form 2 material, and ‘pure’ hydrated Form 3 material, Variable Humidity (VH) XRPD experiments were conducted on Samples 1 and 2. Initially, VH-XRPD experiments were conducted using Sample 1, and XRPD diffractograms were collected at selected humidity values, in line with those collected during GVS experiments (see FIGS. 6E-6F). XRPD diffractograms were collected initially at ambient RH, then collected over 24 hours at ˜95% RH and finally collected during desorption steps to 0% RH and over 10 hours at 0% RH (see FIG. 4C). […]
# [2] = Gravimetric Vapour Sorption (GVS), with XRPD of the recovered sample
# Description: Sorption isotherms were obtained using a SMS DVS Intrinsic moisture sorption analyzer, controlled by DVS Intrinsic Control software v1.0.1.2 (or v 1.0.1.3). The sample temperature was maintained at 25° C. by the instrument controls. The humidity was controlled by mixing streams of dry and wet nitrogen, with a total flow rate of 200 ml/min. The relative humidity was measured by a calibrated Rotronic probe (dynamic range of 1.0-100% RH), located near the sample. The weight change, (mass relaxation) of the sample as a function of % RH was constantly monitored by the microbalance (accuracy ±0.005 mg).
# A sample (e.g., 20 mg) was placed in a tared mesh stainless steel basket under ambient conditions. The sample was loaded and unloaded at 40% RH and 25° C. (typical room conditions). A moisture sorption isotherm was performed as outlined below (2 scans giving 1 complete cycle). Standard isotherms were performed at 25° C. at 10% RH intervals over a 0-90% RH range. Data analysis was carried out using Microsoft Excel using DVS Analysis Suite v6.2 (or 6.1 or 6.0).
# In a cycle of 2 scans, the first scan was performed with adsorption of 40-90% RH, followed by a second scan with desorption of 90-0% RH and adsorption of 0-40% RH, with intervals of 10% RH, at 25° C. with stability dm/dt of 0.002% ° C./min. The sorption time was 6 hr time out.
# The sample was recovered after completion of the isotherm and re-analyzed by XRPD. Custom moisture sorption methods were also performed at 25° C. at fixed % RH intervals over a 0-95% RH range, with the purpose to fully understand the sorption/desorption behavior of the compound under elevated conditions.
# To further explore the humidity behavior of Sample 1 (Form 1) upon exposure to high RH (>90%), custom GVS experiments were designed and carried out. Initially, the sample was treated by holding at 90 and then 95% RH for ˜12 hours to see if hydrate formation could be observed (HighRH method of Steps 1 and 2 of Table 2, FIGS. 6C-6D).
# To test the stability of the hydrated state, GVS method HighRH_Desorp_3 was designed with a desorption step and subsequent adsorption (see Table 2 with steps 1-4, FIGS. 6E-6F).
# Finally, to ensure complete conversion to the anhydrous and hydrated forms, a GVS experiment was designed to increase both the length of the desorption step at 0% RH, and the adsorption step at 95% RH, respectively (Table 3). Based on the weight stabilization observed in the kinetic plots for Sample 1 in HighRH and HighRH_Desorp_3 methods discussed above (FIGS. 6D and 6F), a holding time of 800 mins at 0% RH and 1600 mins at 95% RH were chosen. A double cycle was also recorded for this experiment to observe whether the sample would return to Form 1 or form a mixed anhydrous/hydrated species (see Table 3, FIGS. 6G-6H).
# [3] = Storage at elevated temperature/humidity, analysed by XRPD
# Description: Samples 1 and 2 were characterized by XRPD at various conditions. XRPD patterns were collected for the samples at ambient condition as the samples were provided; at variable temperature (VT-XRPD); at variable humidity (VH-XRPD); after the samples were exposed to 40° C./75% RH for 1 week and 25° C./97% RH for 1 week, respectively; and after a GVS measurement wherein the samples were exposed to 0-90% RH. Samples 1 and 2 were also characterized by ^1H NMR, TGA, DSC, KF, IC, GVS (exposed to 0-90% RH), PLM, SEM, and HPLC (Table 5).
# [4] = Solubility assessment of Sample 1 (majorly Form 1) in 24 solvent systems
structure (smiles),measurement,setting,value
CCNCCc1ccc(CN(CC)c2cc(OC)ccc2[C@@H]2CCc3cc(O)ccc3C2)cc1.Cl.Cl [Sample 1],VH-XRPD at ~95% RH over 24 hr,[1],slow conversion towards the hydrated state; also recorded: Form 3 over 24
same,GVS uptake 0-90% RH,"[2]; 25° C., 0-90% RH",1.8% wt.
same,GVS uptake when held at 95% RH,"[2]; HighRH method, held at 95% RH for ~12 hours",5-6 % wt.
same,Solid form on exposure to high RH (>90%) by GVS,[2]; above 90% RH,irreversibly converted to a hydrate (Form 3)
same,XRPD post GVS (HighRH_DoubleCycle_2 method),"[2]; double cycle, 1600 mins at 95% RH, 800 mins at 0% RH",formation of the hydrate (Form 3)
same,XRPD post GVS (HighRH method),[2]; held at 90 and then 95% RH for ~12 hours,mixture of states or incomplete conversion
same,XRPD post GVS (HighRH_Desorp_3 method),"[2]; single cycle: to 95% RH, desorption to 0% RH, adsorption 0-40% RH",mixture of Form 1 and Form 3
same,XRPD after storage at 25° C./97% RH for 1 week,"[3]; 25° C./97% RH, 1 week",Form 3
same,Solid form on prolonged exposure to high RH (>90%),"[3]; high RH (>90%), e.g. for 7 days",converted to the hydrate Form 3
same,"Solubility in alcohols, esters, and hydrocarbon solvents","[4]; alcohols, esters, hydrocarbon solvents",low solubility
same,Solubility in t-butanol/water (1:1),[4]; t-butanol/water (1:1),high solubility
